Results from US6214581A, “Nucleic acids encoding a functional human purinoreceptor P2X3 and P2X6, and methods of production and use thereof” (Abbott Laboratories, priority 1998, dated 2001).
pEC50: −log10 of the molar value. Read-outs that look alike come from different tables or passages of the source.

Key:
human P2X3 receptors = molecular target: T1, human P2X3 receptors (Homo sapiens, UniProt P56373); assay: Two-electrode voltage-clamp of Xenopus oocytes expressing recombinant human P2X3 receptor; assay type: cell-based; settings: for rank order potency: extracellular P2 receptor agonists; for rank order potency / block of P2X3 receptors: summary; for block of ATP-induced currents: ATP 0.3 μM, antagonist superfused at least 3 minutes before agonist; for block of P2X3 receptors: P2 receptor antagonists
T1 construct: expressed in transfected cells; host or cells: Xenopus laevis oocytes (nuclear injection of the P2X3 insert in pCDNA3.1)
T1 sequence (P56373 1-397): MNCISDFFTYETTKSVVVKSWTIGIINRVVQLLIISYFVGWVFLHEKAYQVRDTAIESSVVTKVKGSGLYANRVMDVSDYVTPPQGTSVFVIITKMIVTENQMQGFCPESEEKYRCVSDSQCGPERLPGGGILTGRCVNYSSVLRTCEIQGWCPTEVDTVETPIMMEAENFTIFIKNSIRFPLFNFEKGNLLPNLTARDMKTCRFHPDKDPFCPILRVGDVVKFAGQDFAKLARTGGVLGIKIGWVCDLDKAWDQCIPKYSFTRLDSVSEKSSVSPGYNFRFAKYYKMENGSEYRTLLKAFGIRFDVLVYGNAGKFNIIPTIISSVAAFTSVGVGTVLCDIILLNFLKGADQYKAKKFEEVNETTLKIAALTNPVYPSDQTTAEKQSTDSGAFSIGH
Method: Responses were measured at a holding potential of -60 mV in modified Barth's solution containing 10 mM BaCl2 and lacking CaCl2 and MgCl2 (final pH 7.4). However, in some experiments, the cell potential was intentionally varied in order to determine the response current-voltage relationship. Agonist was applied briefly using a computer-controlled solenoid valve and a push/pull applicator positioned to within 200-400 μm from the oocyte. Responses were recorded by computer in synchrony with agonist application. Antagonists were included with agonist in the push/pull applicator and were applied to the bath by superfusion for at least 3 minutes before application of agonist. Responses were quantified by measuring the peak amplitude.
The clone was grown up and prepared in large scale using the QIAgen maxiprep DNA preparation system according to the manufacturer's instructions. T he DNA was ethanol precipitated and resuspended in TE buffer. For RNA production, the P2X3 -pCDNA3.1 construct was linearized by digestion with the restriction enzyme NotI and P2X3 messenger RNA was produced using the T7 promoter in this vector and the Ambion mMessage mMachine™ in vitro transcription kit according to the manufacturer's instructions.
For functional anaysis of human P2X3 receptors, 10 ng of human P2X3 DNA prepared as described above were injected into the nucleus of Xenopus oocytes. Oocytes were incubated in normal Barth's solution containing 100 μg/ml gentamicin for 2-7 days following injection. The response to 10 μM ATP was then recorded.

[1] = test system: P2X receptors on dorsal root ganglion nerve terminals in the spinal cord; settings: ATP-induced activation of P2X receptors on dorsal root ganglion nerve terminals; cited from earlier work
P2X6 receptor = settings: cited from earlier work
P2X4 receptor = settings: cited from earlier work
P2X2 = settings: cited from earlier work
P2X1 = settings: cited from earlier work

Compound | rank order potency (human P2X3 receptors) | pEC50 (human P2X3 receptors) | block of P2X6 receptor (P2X6 receptor) | block of P2X4 receptor (P2X4 receptor) | block of ATP-induced currents (human P2X3 receptors) | block of P2X3 receptors (human P2X3 receptors) | also measured
CSc1nc(N)c2ncn([C@@H]3O[C@H](COP(=O)(O)OP(=O)(O)OP(=O)(O)O)[C@@H](O)[C@H]3O)c2n1 [2-methylthio-ATP] | 2-methylthio-ATP>ATP>α,β-methylene-ATP | – | – | – | – | – | pEC50 (human P2X3 receptors; concentration-response, agonist, human P2X3 in Xenopus oocytes, ATP 0.01-1000 μM, read-out: EC50): 6.40
Nc1ncnc2c1ncn2[C@@H]1O[C@H](COP(=O)(O)OP(=O)(O)OP(=O)(O)O)[C@@H](O)[C@H]1O [ATP] | 2-methylthio-ATP>ATP>α,β-methylene-ATP | ~6.15 | – | – | – | – | release of glutamate [1]: stimulates the release of glutamate; reversal potential (human P2X3 receptors; ATP-induced current-voltage relationships): approximately zero; current-voltage rectification (human P2X3 receptors; ATP-induced, negative membrane potentials): pronounced inward rectification; mixed-conductance cation current (human P2X3 receptors; extracellular ATP (10 μM), holding potential -60 mV, oocytes injected with human P2X3 DNA): 100-6000 nA
Cc1ccc(C(=O)Nc2ccc(S(=O)(=O)O)c3cc(S(=O)(=O)O)cc(S(=O)(=O)O)c23)cc1NC(=O)c1cccc(NC(=O)Nc2cccc(C(=O)Nc3cc(C(=O)Nc4ccc(S(=O)(=O)O)c5cc(S(=O)(=O)O)cc(S(=O)(=O)O)c45)ccc3C)c2)c1 [suramin] | – | – | cannot be blocked | cannot be blocked | complete block | blocked | –
Cc1nc(N=Nc2ccc(S(=O)(=O)O)cc2S(=O)(=O)O)c(COP(=O)(O)O)c(C=O)c1O [PPADS, pyridoxal-phosphate-6-azophenyl-2',4'-disulfonic acid] | – | – | cannot be blocked | cannot be blocked | complete block | blocked | –
Nc1ncnc2c1ncn2[C@@H]1O[C@H](COP(=O)(O)CP(=O)(O)OP(=O)(O)O)[C@@H](O)[C@H]1O [α,β-methylene-ATP] | 2-methylthio-ATP>ATP>α,β-methylene-ATP | 5.68 | – | – | – | – | sensitivity of P2X2 to agonist (P2X2): insensitive; activation of P2X6 receptor (P2X6 receptor; agonist): not activated; activation of P2X4 receptor (P2X4 receptor; agonist): not activated; sensitivity of P2X1 to agonist (P2X1): sensitive
